The values that follow are results of earlier work, collected in patent publication US6426338B1, “Therapy for constipation” (priority 1997, dated 2002).

The test system of data set [1] is patients with constipation. The note with it: colchicine alone, in a lower dose.

Consider `COc1cc2c(c(OC)c1OC)-c1ccc(OC)c(=O)cc1[C@@H](NC(C)=O)CC2` [colchicine], for which, in data set [1], the stimulation of defecation entry is “insufficient in most patients to stimulate defecation”. Also, under “given alone in the doses of Verne et al., long-term”, the long-term toxicity result was “can cause muscle and nerve damage (myopathy and neuropathy)”.
As to `CN[C@H](CC(C)C)C(=O)N[C@H]1C(=O)N[C@@H](CC(N)=O)C(=O)N[C@H]2C(=O)N[C@H]3C(=O)N[C@H](C(=O)N[C@H](C(=O)O)c4cc(O)cc(O)c4-c4cc3ccc4O)[C@H](O)c3ccc(c(Cl)c3)Oc3cc2cc(c3O[C@@H]2O[C@H](CO)[C@@H](O)[C@H](O)[C@H]2O[C@H]2C[C@](C)(N)[C@H](O)[C@H](C)O2)Oc2ccc(cc2Cl)[C@H]1O` [vancomycin], for the setting “long-term use as antibiotic”, the side-effect entry is “neurotoxic”.
